In patent US10766940B2, “Brain penetrant amylin receptor based peptides for Alzheimer's disease” (The Governors of the University of Alberta, priority 2016, dated 2020):
Residues, ends and D or L forms follow the SMILES beside them.

Experiments:
TgCRND8 AD mouse model = assay: T-maze alternation, chronic icv infusion of AC253; type: in vivo; conditions: TgCRND8 mice receiving icv AC253 vs other groups
Description: Age-matched, wild-type littermate (C57BL/6 background) male or female mice were used. […] Heterozygous CTR (het CTR) mice (C57BL/6J background) with a 50% deletion of CTR were obtained from Drs. R. A. Davey and J. D. Zajac (Department of Medicine, Austin Health, University of Melbourne, Heidelberg, Victoria, Australia). Mice were housed individually under standard laboratory conditions (12/12-h light/dark cycle, lights on at 0600 h) with a room temperature of 21° C. Water and food were available ad libitum unless otherwise indicated. All tests were performed during the light phase between 0900 and 1600 h in accordance with institutional guidelines. The mice were 3 months old at the onset of testing.
A microcannula was stereotaxically inserted into the right cerebral ventricle (0.12 right lateral and 0.06 posterior to bregma, 3 mm deep) of isofluorane-anesthetized mice, and connected to an osmotic pump (Alzet; model 2004) implanted subcutaneously on the back of the mouse. The pump infused a solution of either aCSF or AC253 in aCSF into the ventricle at a rate of […] to yield an estimated concentration of 1 μM AC253 in the mouse CSF at equilibrium based upon the known CSF dynamics in the mouse brain (Di Pardo et al., 2012). […] Animals were monitored on a daily basis for signs of treatment-related toxicity, such as poor grooming, lethargy, loss of bodyweight, and abnormal behavior. […]

[1] = tested on: TgCRND8 and wild-type mice; assay: Daily monitoring for treatment-related toxicity during chronic icv infusion; type: in vivo, mouse; conditions: chronic icv infusion 5-6 months
Description: A microcannula was stereotaxically inserted into the right cerebral ventricle (0.12 right lateral and 0.06 posterior to bregma, 3 mm deep) of isofluorane-anesthetized mice, and connected to an osmotic pump (Alzet; model 2004) implanted subcutaneously on the back of the mouse. The pump infused a solution of either aCSF or AC253 in aCSF into the ventricle at a rate of […] to yield an estimated concentration of 1 μM AC253 in the mouse CSF at equilibrium based upon the known CSF dynamics in the mouse brain (Di Pardo et al., 2012). The pump reservoir was replaced every 28 days for a total of 5-6 months. Animals were monitored on a daily basis for signs of treatment-related toxicity, such as poor grooming, lethargy, loss of bodyweight, and abnormal behavior. After completion of medication and behavioral tests, all mice were killed with an overdose of isoflourane anesthetic, perfused transcardially with saline, and the brains were harvested. The left hemisphere per animal was frozen for biochemical analysis (Western blot, ELISA), and the right hemisphere retained for histological analysis.

AMY3 receptor = target: T1, AMY3 receptor (Homo sapiens, UniProt O60896+P30988); assay: Inhibition of hAmylin-evoked cAMP in AMY3-expressing HEK293 cells; type: cell-based; conditions: AMY3-HEK cells
T1 construct: expressed in transfected cells; AMY3-293 / AMY3-HEK)
T1 sequence (P30988 25-474): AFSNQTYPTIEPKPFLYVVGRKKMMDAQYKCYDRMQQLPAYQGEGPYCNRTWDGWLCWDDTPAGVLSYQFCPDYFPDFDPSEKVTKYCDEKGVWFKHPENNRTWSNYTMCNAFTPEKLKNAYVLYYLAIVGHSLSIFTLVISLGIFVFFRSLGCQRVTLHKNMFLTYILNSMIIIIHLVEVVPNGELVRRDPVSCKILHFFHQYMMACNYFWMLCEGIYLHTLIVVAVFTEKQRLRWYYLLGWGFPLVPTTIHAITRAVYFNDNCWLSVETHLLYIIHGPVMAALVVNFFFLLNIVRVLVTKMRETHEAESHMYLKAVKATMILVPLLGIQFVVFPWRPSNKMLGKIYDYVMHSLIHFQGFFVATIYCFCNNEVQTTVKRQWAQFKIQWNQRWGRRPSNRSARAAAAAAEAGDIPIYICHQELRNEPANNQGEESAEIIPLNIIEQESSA
T1 sequence (O60896 24-148 partner): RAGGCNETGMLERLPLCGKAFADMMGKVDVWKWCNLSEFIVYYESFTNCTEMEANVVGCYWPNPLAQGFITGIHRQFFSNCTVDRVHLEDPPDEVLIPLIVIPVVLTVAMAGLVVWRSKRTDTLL
Description: a) To investigate peptides amylin receptor affinity, GFP-positive HEK293 cells that stably expressed AMY3 receptor (AMY3-293) as previously reported (Fu et al., 2012) were used. For control, GFP-positive HEK293 wild type cells were used. HEK293 cells were cultured in DMEM (Invitrogen) with 10% FBS (Invitrogen) and grown at 37° C., 5% C02. For cAMP measurements, AMY3-293 cells were plated on 24-well plates overnight. Cells were stimulated for 30 minutes with hAmylin over a concentration range (1 pM-10 μM). Cellular cAMP levels were measured using a parameter cyclic AMP assay kit (R&D Systems) according to the manufacturer's instructions. For in-cell Western blot cAMP quantification, mouse monoclonal anti-cAMP (R&D Systems) was used as a primary antibody, and IRDye 800 goat anti mouse antibody (LI-COR) was used as a secondary antibody. Plates were imaged using an Odyssey Infrared Imaging System (LI-COR), and the integrated intensity was normalized to the total cell number on the same well. Data was plotted, and non-linear regression was fitted with four parameters using Prism software (GraphPad Software, La Jolla, Calif.).
e) For cAMP measurements, AMY3-293 cells were plated on 24-well plates overnight. […] Cellular cAMP levels were measured using a parameter cyclic AMP assay kit (R&D Systems) according to the manufacturer's instructions. […]

[2] = Ex vivo brain imaging of peptide fragments after ip injection, wild-type mice; type: in vivo, mouse
Description: For ex vivo imaging experiments and peptide brain uptake, age matched 6-month-old wild-type littermate (C57BL/6 background) mice were used. […] After 2 hours the mice were then sacrificed to collect their brains, and imaged using the Kodak imager as described above, but with an exposure time of 3 min per image for NIRF image.
For ex vivo histological studies, brains were excised, embedded in OCT, then sliced into 20-μm slices, co-stained with DAPI in mounting medium.
Mice were injected with a single dose and then sacrificed, and the brains were extracted after 2 hours from injection. Fluorescence in brains was quantified as previously described.

| SMILES | T-maze, identification of the food arm (TgCRND8 AD mouse model) | signs of off-target effects or changes in body weight [1] | block of hAmylin evoked cAMP increase (AMY3 receptor) | brain permeability, imaging of the intact brain ([2]; 0.1 mmol ip, 2 hr post-injection, tested alongside Davlintide) | brain permeability compared to AC253 ([2]; 2 hr post-ip injection, wild-type mice) |
| --- | --- | --- | --- | --- | --- |
| CC(C)C[C@H](NC(=O)[C@H](CCCNC(=N)N)NC(=O)CNC(=O)[C@@H](N)CC(C)C)C(=O)N[C@@H](CO)C(=O)N[C@@H](CCC(N)=O)C(=O)N[C@@H](CCC(=O)O)C(=O)N[C@@H](CC(C)C)C(=O)N[C@@H](Cc1c[nH]cn1)C(=O)N[C@@H](CCCNC(=N)N)C(=O)N[C@@H](CC(C)C)C(=O)N[C@@H](CCC(N)=O)C(=O)N[C@H](C(=O)N[C@@H](Cc1ccc(O)cc1)C(=O)N1CCC[C@H]1C(=O)N[C@@H](CCCNC(=N)N)C(=O)N[C@H](C(=O)N[C@@H](CC(N)=O)C(=O)N[C@H](C(=O)NCC(=O)N[C@@H](CO)C(=O)N[C@@H](CC(N)=O)C(=O)N[C@H](C(=O)N[C@@H](Cc1ccc(O)cc1)C(N)=O)[C@@H](C)O)[C@@H](C)O)[C@@H](C)O)[C@@H](C)O [AC253] | correctly identified the food arm of the maze | none of the mice receiving AC253 showed any signs of off-target effects | blocked the hAmylin evoked cAMP increase in a dose-dependent manner |  |  |
| CC(C)C[C@H](NC(=O)[C@H](CCC(=O)O)NC(=O)[C@H](CCC(N)=O)NC(=O)[C@@H](N)CO)C(=O)N[C@@H](Cc1c[nH]cn1)C(=O)N[C@@H](CCCNC(=N)N)C(=O)N[C@@H](CC(C)C)C(=O)N[C@@H](CCC(N)=O)C(=O)N[C@H](C(=O)N[C@@H](Cc1ccc(O)cc1)C(=O)N1CCC[C@H]1C(=O)N[C@@H](CCCNC(=N)N)C(N)=O)[C@@H](C)O [R5] (H-SQELHRLQTYPR-NH2; N-terminus assumed) |  |  |  | marked brain permeability | marked increase in brain permeability |
